In brackets after ≈: the same amount, converted by molar mass. Like-named read-outs stand apart in the source and are kept apart here.
Columns and labels:
H. pylori [1] = test: Antimicrobial activity test 1: anti-H. pylori activity of a single compound (agar plate method); assay type: cell-based, Helicobacter pylori; conditions: for MIC: Helicobacter pylori
H. pylori [2] = test: Antimicrobial activity test 2: time for sterilizing H. pylori (viable cell count in Brucella broth); assay type: cell-based, Helicobacter pylori
Method: A solution of the test compound was added to Brucella broth containing 5% fetal bovine serum, cultured under slightly aerobic conditions at 37° C., and the vial microbe cell number in Brucella agar containing 7% horse blood was counted at predetermined intervals. The above compound (1) was dissolved in a 1% aqueous solution of […] (DMSO), and the above compound (2) was dissolved in water to prepare a solution of each test compound. “cfu” in Tables and Figures means “colony forming unit”.

[3] = Acute toxicity test, single oral dose, rats; assay type: in vivo, Slc:SD rats; conditions: for LD50: Slc:SD, rat, in vivo, po, single oral dose, read-out: LD50 (Oral administration)
Method: A toxicity test was conducted by orally administering a single dose into 7- to 8-weeks old Slc:SD rats and Slc:ICR mice, each group consisting of 5 females and 5 males (medium; physiological saline).

H. pylori [4] = test: Antimicrobial activity test 5: oxethazaine in combination with compound (IV) (lansoprazole), checker board method; assay type: cell-based, Helicobacter pylori
Text: The effect of oxethazaine used in combination with compound (IV) (lansoprazole) was examined in the same manner as in antimicrobial activity test 1, using the checker board method.
Hereinafter, the results are shown for each strain in the same manner as in antimicrobial activity test 3.

Gram-positive bacteria = test: Antimicrobial activity (MIC) of oxethazaine and structure analogues against Gram-positive bacteria; assay type: cell-based

CN(C(=O)CN(CCO)CC(=O)N(C)C(C)(C)Cc1ccccc1)C(C)(C)Cc1ccccc1 [Oxethazaine, 2,2′-[(2-hydroxyethyl)amino]bis[N-(1,1-dimethyl-2-phenylethyl)-N-methylacetamide]]
MIC (H. pylori [1]; NCTC11637, strain NCTC11637, read-out: MIC (growth inhibition)): 25 µg/mL (≈ 53.5 µM) | MIC (H. pylori [1]; NCTC11639, strain NCTC11639, read-out: MIC (growth inhibition)): 50 µg/mL (≈ 107 µM) | MIC (H. pylori [1]; NCTC11916, strain NCTC11916, read-out: MIC (growth inhibition)): 25 µg/mL (≈ 53.5 µM) | MIC (H. pylori [1]; strain 89-355, read-out: MIC (growth inhibition)): 12.5 µg/mL (≈ 26.7 µM) | MIC (H. pylori [1]; strain 89-357, read-out: MIC (growth inhibition)): 25 µg/mL (≈ 53.5 µM) | MIC (H. pylori [1]; strain 89-360 (1), read-out: MIC (growth inhibition)): 25 µg/mL (≈ 53.5 µM) | MIC (H. pylori [1]; strain 89-360, read-out: MIC (growth inhibition)): 25 µg/mL (≈ 53.5 µM) | MIC (H. pylori [1]; strain 90-384, read-out: MIC (growth inhibition)): 25 µg/mL (≈ 53.5 µM) | MIC (H. pylori [1]; strain 90-388 (1), read-out: MIC (growth inhibition)): 25 µg/mL (≈ 53.5 µM) | MIC (H. pylori [1]; strain 90-388, read-out: MIC (growth inhibition)): 25 µg/mL (≈ 53.5 µM) | MIC (H. pylori [1]; strain 90-390 (1), read-out: MIC (growth inhibition)): 25 µg/mL (≈ 53.5 µM) | MIC (H. pylori [1]; strain 90-390, read-out: MIC (growth inhibition)): 25 µg/mL (≈ 53.5 µM) | MIC (H. pylori [1]; strain 90-392, read-out: MIC (growth inhibition)): 25 µg/mL (≈ 53.5 µM) | MIC (H. pylori [1]; strain 90-397 (first line, r19), read-out: MIC (growth inhibition)): 25 µg/mL (≈ 53.5 µM) | MIC (H. pylori [1]; strain 90-397 (second line, r25), read-out: MIC (growth inhibition)): 25 µg/mL (≈ 53.5 µM) | MIC (H. pylori [1]; strain 90-407 (1), read-out: MIC (growth inhibition)): 25 µg/mL (≈ 53.5 µM) | MIC (H. pylori [1]; strain 90-407, read-out: MIC (growth inhibition)): 25 µg/mL (≈ 53.5 µM) | MIC (H. pylori [1]; strain 90-411, read-out: MIC (growth inhibition)): 25 µg/mL (≈ 53.5 µM) | MIC (H. pylori [1]; strain 90-414 (1), read-out: MIC (growth inhibition)): 25 µg/mL (≈ 53.5 µM) | MIC (H. pylori [1]; strain 90-414, read-out: MIC (growth inhibition)): 25 µg/mL (≈ 53.5 µM) | MIC (H. pylori [1]; strain 90-428, read-out: MIC (growth inhibition)): 25 µg/mL (≈ 53.5 µM) | MIC (H. pylori [1]; strain EH12, read-out: MIC (growth inhibition)): 25 µg/mL (≈ 53.5 µM) | MIC (H. pylori [1]; strain EH13, read-out: MIC (growth inhibition)): 25 µg/mL (≈ 53.5 µM) | MIC (H. pylori [1]; strain EH16, read-out: MIC (growth inhibition)): 25 µg/mL (≈ 53.5 µM) | MIC (H. pylori [1]; strain EH26, read-out: MIC (growth inhibition)): 25 µg/mL (≈ 53.5 µM) | MIC (H. pylori [1]; summary of the strains of antimicrobial activity test 1, read-out: MIC for each strain): ~25 µg/mL (≈ 53.5 µM) | anti-H. pylori activity (H. pylori [1]; conclusion from test 1): excellent anti-H. pylori activity | Viable microbe cell number (H. pylori [2]; EH12, 1 MIC, 0 h): 5.60 log10cfu/ml | Viable microbe cell number (H. pylori [2]; EH12, 1 MIC, 3 h): 5.67 log10cfu/ml | Viable microbe cell number (H. pylori [2]; EH12, 1 MIC, 6 h): 5.61 log10cfu/ml | Viable microbe cell number (H. pylori [2]; EH12, 1 MIC, 9 h): 5.68 log10cfu/ml | Viable microbe cell number (H. pylori [2]; EH12, 1 MIC, 24 h): 4.51 log10cfu/ml | Viable microbe cell number (H. pylori [2]; EH12, 2 MIC, 0 h): 5.60 log10cfu/ml | Viable microbe cell number (H. pylori [2]; EH12, 2 MIC, 3 h): 1.78 log10cfu/ml | Viable microbe cell number (H. pylori [2]; EH12, 2 MIC, 6 h): 0 log10cfu/ml | Viable microbe cell number (H. pylori [2]; EH12, 2 MIC, 9 h): 0 log10cfu/ml | Viable microbe cell number (H. pylori [2]; EH12, 2 MIC, 24 h): 0 log10cfu/ml | Viable microbe cell number (H. pylori [2]; EH12, 4 MIC, 0 h): 5.60 log10cfu/ml | Viable microbe cell number (H. pylori [2]; EH12, 4 MIC, 3 h): 0 log10cfu/ml | Viable microbe cell number (H. pylori [2]; EH12, 4 MIC, 6 h): 0 log10cfu/ml | Viable microbe cell number (H. pylori [2]; EH12, 4 MIC, 9 h): 0 log10cfu/ml | Viable microbe cell number (H. pylori [2]; EH12, 4 MIC, 24 h): 0 log10cfu/ml | Viable microbe cell number (H. pylori [2]; EH12, ½ MIC, 0 h): 5.60 log10cfu/ml | Viable microbe cell number (H. pylori [2]; EH12, ½ MIC, 3 h): 5.77 log10cfu/ml | Viable microbe cell number (H. pylori [2]; EH12, ½ MIC, 6 h): 5.19 log10cfu/ml | Viable microbe cell number (H. pylori [2]; EH12, ½ MIC, 9 h): 5.71 log10cfu/ml | Viable microbe cell number (H. pylori [2]; EH12, ½ MIC, 24 h): 5.27 log10cfu/ml | sterilization curve (H. pylori [2]; FIGS. 1 to 4, compared with the antibiotic): rapidly dropping sterilization curve | Viable microbe cell number (H. pylori [2]; NCTC 11637, 1 MIC, 0 h): 5.70 log10cfu/ml | Viable microbe cell number (H. pylori [2]; NCTC 11637, 1 MIC, 3 h): 5.24 log10cfu/ml | Viable microbe cell number (H. pylori [2]; NCTC 11637, 1 MIC, 6 h): 4.98 log10cfu/ml | Viable microbe cell number (H. pylori [2]; NCTC 11637, 1 MIC, 9 h): 4.64 log10cfu/ml | Viable microbe cell number (H. pylori [2]; NCTC 11637, 1 MIC, 24 h): 4.30 log10cfu/ml | Viable microbe cell number (H. pylori [2]; NCTC 11637, 2 MIC, 0 h): 5.70 log10cfu/ml | Viable microbe cell number (H. pylori [2]; NCTC 11637, 2 MIC, 3 h): 1.90 log10cfu/ml | Viable microbe cell number (H. pylori [2]; NCTC 11637, 2 MIC, 6 h): 0 log10cfu/ml | Viable microbe cell number (H. pylori [2]; NCTC 11637, 2 MIC, 9 h): 0 log10cfu/ml | Viable microbe cell number (H. pylori [2]; NCTC 11637, 2 MIC, 24 h): 0 log10cfu/ml | Viable microbe cell number (H. pylori [2]; NCTC 11637, 4 MIC, 0 h): 5.70 log10cfu/ml | Viable microbe cell number (H. pylori [2]; NCTC 11637, 4 MIC, 3 h): 0 log10cfu/ml | Viable microbe cell number (H. pylori [2]; NCTC 11637, 4 MIC, 6 h): 0 log10cfu/ml | Viable microbe cell number (H. pylori [2]; NCTC 11637, 4 MIC, 9 h): 0 log10cfu/ml | Viable microbe cell number (H. pylori [2]; NCTC 11637, 4 MIC, 24 h): 0 log10cfu/ml | Viable microbe cell number (H. pylori [2]; NCTC 11637, ½ MIC, 0 h): 5.70 log10cfu/ml | Viable microbe cell number (H. pylori [2]; NCTC 11637, ½ MIC, 3 h): 5.48 log10cfu/ml | Viable microbe cell number (H. pylori [2]; NCTC 11637, ½ MIC, 6 h): 5.27 log10cfu/ml | Viable microbe cell number (H. pylori [2]; NCTC 11637, ½ MIC, 9 h): 5.11 log10cfu/ml | Viable microbe cell number (H. pylori [2]; NCTC 11637, ½ MIC, 24 h): 5.51 log10cfu/ml | Viable microbe cell number (H. pylori [2]; NCTC 11916, 1 MIC, 0 h): 5.72 log10cfu/ml | Viable microbe cell number (H. pylori [2]; NCTC 11916, 1 MIC, 3 h): 6.04 log10cfu/ml | Viable microbe cell number (H. pylori [2]; NCTC 11916, 1 MIC, 6 h): 5.92 log10cfu/ml | Viable microbe cell number (H. pylori [2]; NCTC 11916, 1 MIC, 9 h): 5.84 log10cfu/ml | Viable microbe cell number (H. pylori [2]; NCTC 11916, 1 MIC, 24 h): 4.67 log10cfu/ml | Viable microbe cell number (H. pylori [2]; NCTC 11916, 2 MIC, 0 h): 5.77 log10cfu/ml | Viable microbe cell number (H. pylori [2]; NCTC 11916, 2 MIC, 3 h): 3.63 log10cfu/ml | Viable microbe cell number (H. pylori [2]; NCTC 11916, 2 MIC, 6 h): 2.83 log10cfu/ml | Viable microbe cell number (H. pylori [2]; NCTC 11916, 2 MIC, 9 h): 2.61 log10cfu/ml | Viable microbe cell number (H. pylori [2]; NCTC 11916, 2 MIC, 24 h): 0 log10cfu/ml | Viable microbe cell number (H. pylori [2]; NCTC 11916, 4 MIC, 0 h): 5.77 log10cfu/ml | Viable microbe cell number (H. pylori [2]; NCTC 11916, 4 MIC, 3 h): 0 log10cfu/ml | Viable microbe cell number (H. pylori [2]; NCTC 11916, 4 MIC, 6 h): 0 log10cfu/ml | Viable microbe cell number (H. pylori [2]; NCTC 11916, 4 MIC, 9 h): 0 log10cfu/ml | Viable microbe cell number (H. pylori [2]; NCTC 11916, 4 MIC, 24 h): 0 log10cfu/ml | Viable microbe cell number (H. pylori [2]; NCTC 11916, ½ MIC, 0 h): 5.77 log10cfu/ml | Viable microbe cell number (H. pylori [2]; NCTC 11916, ½ MIC, 3 h): 5.70 log10cfu/ml | Viable microbe cell number (H. pylori [2]; NCTC 11916, ½ MIC, 6 h): 6.35 log10cfu/ml | Viable microbe cell number (H. pylori [2]; NCTC 11916, ½ MIC, 9 h): 6.32 log10cfu/ml | Viable microbe cell number (H. pylori [2]; NCTC 11916, ½ MIC, 24 h): 6.44 log10cfu/ml | LD50 ([3]; female, Rat ♀): 1070 mg/kg | LD50 ([3]; male, Rat ♂): ≥ 1000 mg/kg | LD50 values relative to clinical doses ([3]; oral, rats and mice, clinical doses 15 to 40 mg/day): about 5000 times | effect of combined use (H. pylori [4]; strain 90-392): 90-392 (additive effect) | effect of combined use (H. pylori [4]; strain 90-397): 90-397 (synergism) | effect of combined use (H. pylori [4]; strain 90-414): 90-414 (synergism) | effect of combined use (H. pylori [4]; strain 90-414(1)): 90-414(1) (synergism) | MIC (Gram-positive bacteria; Enterococcus faecalis, E. faecalis RIMD 3116001): 25 µg/mL (≈ 53.5 µM) | MIC (Gram-positive bacteria; Staphylococcus aureus, FDA209, S. aureus FDA 209-P): 12.5 µg/mL (≈ 26.7 µM) | MIC (Gram-positive bacteria; Staphylococcus epidermidis, ATCC12228, S. epidermidis ATCC 12228): 6.25 µg/mL (≈ 13.4 µM) | effect on Gram-positive bacteria (Gram-positive bacteria; conclusion): excellent effect
